US9073874B2, “Cyclic N,N′-diarylthioureas and N,N′-diarylureas-androgen receptor antagonists, anticancer agent, method for preparation and use thereof” (priority 2010, dated 2015)

How the values were obtained:
ETA (h) = ETA (h) (Homo sapiens, UniProt P25101); experiment: competitive radioligand binding assay, ETA (h) (agonist radioligand)
MT1 (ML1A) (h) = MT1 (ML1A) (h) (Homo sapiens, UniProt P48039); experiment: competitive radioligand binding assay, MT1 (ML1A) (h) (agonist radioligand)
AMPA = experiment: competitive radioligand binding assay, AMPA (agonist radioligand); settings: 10 μM
5-HT transporter (h) = 5-HT transporter (h) (Homo sapiens, UniProt P31645); experiment: competitive radioligand binding assay, 5-HT transporter (h) (antagonist radioligand)
CysLT1 (LTD4) (h) = CysLT1 (LTD4) (h) (Homo sapiens, UniProt Q9Y271); experiment: competitive radioligand binding assay, CysLT1 (LTD4) (h) (agonist radioligand)
Sequence of CysLT1 (LTD4) (h) (Q9Y271 whole entry): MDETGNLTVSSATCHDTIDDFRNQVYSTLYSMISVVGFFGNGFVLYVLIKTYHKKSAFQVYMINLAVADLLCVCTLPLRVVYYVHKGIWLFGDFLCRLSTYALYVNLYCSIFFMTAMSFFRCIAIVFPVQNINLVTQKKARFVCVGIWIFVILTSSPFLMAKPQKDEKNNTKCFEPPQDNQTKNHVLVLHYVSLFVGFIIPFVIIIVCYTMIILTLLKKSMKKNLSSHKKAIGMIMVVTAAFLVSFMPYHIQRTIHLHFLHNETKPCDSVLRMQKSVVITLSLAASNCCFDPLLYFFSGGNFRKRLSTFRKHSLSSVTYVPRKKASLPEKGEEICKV

IP (PGI2) (h) = IP (PGI2) (h) (Homo sapiens, UniProt P43119); experiment: competitive radioligand binding assay, IP (PGI2) (h) (agonist radioligand)
Sequence of IP (PGI2) (h) (P43119 whole entry): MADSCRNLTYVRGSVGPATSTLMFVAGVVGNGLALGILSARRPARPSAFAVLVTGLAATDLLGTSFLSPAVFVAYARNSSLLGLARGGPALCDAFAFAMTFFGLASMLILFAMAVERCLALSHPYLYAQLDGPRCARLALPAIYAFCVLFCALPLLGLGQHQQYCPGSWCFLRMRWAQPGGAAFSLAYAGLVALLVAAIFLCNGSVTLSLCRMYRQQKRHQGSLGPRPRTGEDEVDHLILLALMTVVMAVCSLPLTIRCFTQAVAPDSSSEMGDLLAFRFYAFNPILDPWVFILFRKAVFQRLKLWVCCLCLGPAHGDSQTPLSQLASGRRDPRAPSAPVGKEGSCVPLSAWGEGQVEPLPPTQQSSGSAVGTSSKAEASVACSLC

CB1 (h) = CB1 (h) (Homo sapiens, UniProt P21554); experiment: competitive radioligand binding assay, CB1 (h) (agonist radioligand)
Sequence of CB1 (h) (P21554 whole entry): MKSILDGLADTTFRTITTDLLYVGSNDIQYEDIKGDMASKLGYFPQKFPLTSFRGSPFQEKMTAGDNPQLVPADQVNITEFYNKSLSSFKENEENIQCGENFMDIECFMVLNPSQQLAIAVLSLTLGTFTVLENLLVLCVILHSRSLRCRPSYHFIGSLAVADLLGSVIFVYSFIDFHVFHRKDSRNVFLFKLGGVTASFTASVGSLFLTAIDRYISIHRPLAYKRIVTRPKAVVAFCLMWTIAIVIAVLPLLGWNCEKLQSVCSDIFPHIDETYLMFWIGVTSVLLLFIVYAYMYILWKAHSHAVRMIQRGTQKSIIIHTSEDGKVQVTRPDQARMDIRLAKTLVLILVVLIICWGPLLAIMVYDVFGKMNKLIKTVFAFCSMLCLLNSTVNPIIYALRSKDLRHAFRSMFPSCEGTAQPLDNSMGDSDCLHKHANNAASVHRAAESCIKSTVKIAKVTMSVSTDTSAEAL

P2X = experiment: competitive radioligand binding assay, P2X (agonist radioligand); settings: 10 μM
KV channel = experiment: competitive radioligand binding assay, KV channel (antagonist radioligand); settings: 10 μM
[1] = molecular target: norepinephrine transporter (h) (Homo sapiens, UniProt P23975); experiment: competitive radioligand binding assay, norepinephrine transporter (h) (antagonist radioligand)
Sequence of norepinephrine transporter (h) (P23975 whole entry): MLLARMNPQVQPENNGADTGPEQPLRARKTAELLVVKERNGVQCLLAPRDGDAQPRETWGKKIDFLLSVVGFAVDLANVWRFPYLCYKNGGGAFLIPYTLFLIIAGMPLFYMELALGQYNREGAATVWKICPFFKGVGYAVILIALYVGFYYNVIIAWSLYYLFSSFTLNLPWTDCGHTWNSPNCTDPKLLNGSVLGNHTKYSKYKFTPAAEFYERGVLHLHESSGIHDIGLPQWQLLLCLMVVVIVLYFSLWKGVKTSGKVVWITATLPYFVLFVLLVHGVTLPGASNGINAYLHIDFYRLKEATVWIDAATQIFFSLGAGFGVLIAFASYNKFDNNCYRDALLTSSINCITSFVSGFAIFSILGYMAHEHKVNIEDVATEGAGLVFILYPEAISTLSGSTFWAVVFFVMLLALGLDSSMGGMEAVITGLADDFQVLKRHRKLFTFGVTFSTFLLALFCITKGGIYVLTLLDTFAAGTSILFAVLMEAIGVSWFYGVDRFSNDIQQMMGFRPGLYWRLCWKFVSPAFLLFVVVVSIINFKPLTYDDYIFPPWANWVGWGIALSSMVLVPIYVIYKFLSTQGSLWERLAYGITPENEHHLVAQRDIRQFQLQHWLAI

androgen receptors = molecular target: T1, androgen receptors (Homo sapiens, UniProt P10275, T878A); experiment: cell-based; type: cell-based
T1 construct: host or cells: LNCaP
T1 sequence (P10275 1-920 T878A): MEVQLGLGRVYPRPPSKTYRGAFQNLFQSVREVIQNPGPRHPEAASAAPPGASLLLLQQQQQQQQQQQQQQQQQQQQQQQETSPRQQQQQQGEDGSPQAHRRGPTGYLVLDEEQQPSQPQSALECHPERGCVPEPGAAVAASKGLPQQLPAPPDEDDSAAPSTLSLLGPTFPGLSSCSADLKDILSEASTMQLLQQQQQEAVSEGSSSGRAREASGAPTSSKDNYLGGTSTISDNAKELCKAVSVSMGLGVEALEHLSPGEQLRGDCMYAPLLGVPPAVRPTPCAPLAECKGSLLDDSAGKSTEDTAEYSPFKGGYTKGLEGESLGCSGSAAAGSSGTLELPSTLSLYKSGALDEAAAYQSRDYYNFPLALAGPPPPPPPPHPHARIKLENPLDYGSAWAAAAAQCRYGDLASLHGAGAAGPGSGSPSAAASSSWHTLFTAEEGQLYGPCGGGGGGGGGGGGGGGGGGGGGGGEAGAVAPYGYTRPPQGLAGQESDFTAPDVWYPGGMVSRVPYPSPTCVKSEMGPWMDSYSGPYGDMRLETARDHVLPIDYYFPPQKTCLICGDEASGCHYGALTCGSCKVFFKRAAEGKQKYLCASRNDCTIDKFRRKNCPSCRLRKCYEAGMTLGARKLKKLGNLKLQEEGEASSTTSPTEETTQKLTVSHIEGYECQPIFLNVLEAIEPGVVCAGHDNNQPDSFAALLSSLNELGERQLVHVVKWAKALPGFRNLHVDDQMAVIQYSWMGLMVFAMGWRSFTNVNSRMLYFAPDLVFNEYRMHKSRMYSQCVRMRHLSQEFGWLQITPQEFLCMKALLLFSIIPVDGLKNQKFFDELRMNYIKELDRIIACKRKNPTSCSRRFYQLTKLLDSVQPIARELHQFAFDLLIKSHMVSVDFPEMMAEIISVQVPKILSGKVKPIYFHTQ
Description: The expression of PSA was measured in the culture medium 24 hours thereafter (FIG. 1). […] The LnCAP cells were cultured for a further 5 days and the number of viable cells was then calculated.
FIG. 1. Inhibition of DHT-stimulated PSA expression in LnCAP cells.
These cells are sensitive towards 5-a-dihydrotestosterone (DHT) and in the presence thereof produce cancer markers (PSA). […] Before the experiment, the cells were washed and suspended in the same medium, in which, however, a serum treated with charcoal for removal of hormone traces was used instead of calf serum. The cells (10 000 in total) were embedded into the wells of 96-well plates at 100 μl per well and left for 4 days in an incubator at 37° C. […] The cells were incubated for a further 5 days under the same conditions. Then, samples of the supracellular medium were taken and analyzed for PSA. The test was carried out according to the protocol recommended by the manufacturer of the kit for PSA measurement (Alpha Diagnostic International, USA). After wetting the wells containing PSA antibodies attached to their bottoms, 25 μl of test compounds and 100 μl of PSA antibodies pre-conjugated to horseradish peroxidase were added successively to each well. Following a 30-minute incubation at room temperature, the content of each well was removed, the wells were washed several times, and 100 μl of a peroxidase chromogenic substrate was then added to each well. […] Based on data about the dependence of DHT-related reduction of PSA synthesis on the concentration of test compounds, dose-response curves were plotted to determine IC50 values. Said values were used for calculating apparent inhibition constants (Ki) for compounds of general formula I according to Cheng-Prusoff equation. [Cheng, Y., Prusoff, W. H. “Relationship between the inhibition constant (Ki) and the concentration of inhibitor which causes 50 percent inhibition (IC50) of an enzymatic reaction”. Biochem Pharmacol.

kainate = experiment: competitive radioligand binding assay, kainate (agonist radioligand); settings: 10 μM
PPARγ (h) = PPARγ (h) (Homo sapiens, UniProt P37231); experiment: competitive radioligand binding assay, PPARγ (h) (agonist radioligand)
Sequence of PPARγ (h) (P37231 whole entry): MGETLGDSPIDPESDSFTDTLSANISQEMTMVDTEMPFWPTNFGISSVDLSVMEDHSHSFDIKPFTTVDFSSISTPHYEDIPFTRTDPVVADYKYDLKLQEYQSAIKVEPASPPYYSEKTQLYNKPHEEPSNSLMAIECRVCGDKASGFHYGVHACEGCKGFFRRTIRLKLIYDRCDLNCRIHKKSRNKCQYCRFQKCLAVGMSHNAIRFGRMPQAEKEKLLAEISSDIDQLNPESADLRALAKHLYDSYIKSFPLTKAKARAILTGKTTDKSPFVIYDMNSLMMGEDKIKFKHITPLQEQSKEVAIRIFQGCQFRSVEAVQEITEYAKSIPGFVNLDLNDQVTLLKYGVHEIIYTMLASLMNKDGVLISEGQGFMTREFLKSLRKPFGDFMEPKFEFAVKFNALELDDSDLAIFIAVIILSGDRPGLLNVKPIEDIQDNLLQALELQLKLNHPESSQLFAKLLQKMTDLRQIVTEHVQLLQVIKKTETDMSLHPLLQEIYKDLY

B2 (h) = B2 (h) (Homo sapiens, UniProt P30411); experiment: competitive radioligand binding assay, B2 (h) (agonist radioligand)
GABA transporter = experiment: competitive radioligand binding assay, GABA transporter (antagonist radioligand); settings: 10 μM
NOP (ORL1) (h) = NOP (ORL1) (h) (Homo sapiens, UniProt P41146); experiment: competitive radioligand binding assay, NOP (ORL1) (h) (agonist radioligand)
Sequence of NOP (ORL1) (h) (P41146 whole entry): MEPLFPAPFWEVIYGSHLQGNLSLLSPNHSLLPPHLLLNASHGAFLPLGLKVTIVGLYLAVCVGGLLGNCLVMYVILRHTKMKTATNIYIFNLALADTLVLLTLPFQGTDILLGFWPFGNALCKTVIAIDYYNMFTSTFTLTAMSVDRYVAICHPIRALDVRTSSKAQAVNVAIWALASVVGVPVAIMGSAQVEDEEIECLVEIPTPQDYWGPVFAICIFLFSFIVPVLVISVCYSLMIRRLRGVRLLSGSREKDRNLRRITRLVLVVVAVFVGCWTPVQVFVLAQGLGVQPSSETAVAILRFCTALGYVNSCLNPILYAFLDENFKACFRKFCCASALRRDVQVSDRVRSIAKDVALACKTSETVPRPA

P2Y = experiment: competitive radioligand binding assay, P2Y (agonist radioligand); settings: 10 μM
BLT1 (LTB4) (h) = BLT1 (LTB4) (h) (Homo sapiens, UniProt Q15722); experiment: competitive radioligand binding assay, BLT1 (LTB4) (h) (agonist radioligand)
Sequence of BLT1 (LTB4) (h) (Q15722 whole entry): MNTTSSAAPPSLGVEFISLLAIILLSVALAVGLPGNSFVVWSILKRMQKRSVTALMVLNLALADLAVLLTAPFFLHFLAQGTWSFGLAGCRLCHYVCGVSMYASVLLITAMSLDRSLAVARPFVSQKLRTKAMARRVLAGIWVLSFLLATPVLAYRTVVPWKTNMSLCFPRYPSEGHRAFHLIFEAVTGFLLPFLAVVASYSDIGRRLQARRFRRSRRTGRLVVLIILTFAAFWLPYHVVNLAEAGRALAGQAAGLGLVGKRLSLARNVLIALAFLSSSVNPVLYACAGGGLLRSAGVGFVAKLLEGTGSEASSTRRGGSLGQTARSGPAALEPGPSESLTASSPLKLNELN

V2 (h) = V2 (h) (Homo sapiens, UniProt P30518); experiment: competitive radioligand binding assay, V2 (h) (agonist radioligand)
Sequence of V2 (h) (P30518 whole entry): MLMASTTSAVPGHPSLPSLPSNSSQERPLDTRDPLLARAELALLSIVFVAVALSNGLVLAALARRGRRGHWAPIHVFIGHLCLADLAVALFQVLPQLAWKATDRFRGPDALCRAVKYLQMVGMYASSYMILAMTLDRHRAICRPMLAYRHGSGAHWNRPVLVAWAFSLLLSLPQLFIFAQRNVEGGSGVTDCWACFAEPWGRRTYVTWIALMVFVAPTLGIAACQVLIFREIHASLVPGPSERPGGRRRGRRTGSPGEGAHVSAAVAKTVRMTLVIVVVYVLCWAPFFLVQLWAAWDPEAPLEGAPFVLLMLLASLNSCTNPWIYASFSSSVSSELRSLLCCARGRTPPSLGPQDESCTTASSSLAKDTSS

A1 (h) = A1 (h) (Homo sapiens, UniProt P30542); experiment: competitive radioligand binding assay, A1 (h) (antagonist radioligand)
Sequence of A1 (h) (P30542 whole entry): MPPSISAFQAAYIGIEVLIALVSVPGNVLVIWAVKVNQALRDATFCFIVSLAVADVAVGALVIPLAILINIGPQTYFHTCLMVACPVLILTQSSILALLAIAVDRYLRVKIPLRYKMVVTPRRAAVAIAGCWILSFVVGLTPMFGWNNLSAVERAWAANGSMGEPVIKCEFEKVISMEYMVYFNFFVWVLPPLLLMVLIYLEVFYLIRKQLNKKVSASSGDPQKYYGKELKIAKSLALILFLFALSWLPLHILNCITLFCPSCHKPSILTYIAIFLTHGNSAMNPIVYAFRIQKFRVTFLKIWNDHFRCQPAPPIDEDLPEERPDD

GR (h) = GR (h) (Homo sapiens, UniProt P04150); experiment: competitive radioligand binding assay, GR (h) (agonist radioligand)
D2S (h) = D2S (h) (Homo sapiens, UniProt P14416); experiment: competitive radioligand binding assay, D2S (h) (antagonist radioligand)
Sequence of D2S (h) (P14416 1-414 isoform P14416-2): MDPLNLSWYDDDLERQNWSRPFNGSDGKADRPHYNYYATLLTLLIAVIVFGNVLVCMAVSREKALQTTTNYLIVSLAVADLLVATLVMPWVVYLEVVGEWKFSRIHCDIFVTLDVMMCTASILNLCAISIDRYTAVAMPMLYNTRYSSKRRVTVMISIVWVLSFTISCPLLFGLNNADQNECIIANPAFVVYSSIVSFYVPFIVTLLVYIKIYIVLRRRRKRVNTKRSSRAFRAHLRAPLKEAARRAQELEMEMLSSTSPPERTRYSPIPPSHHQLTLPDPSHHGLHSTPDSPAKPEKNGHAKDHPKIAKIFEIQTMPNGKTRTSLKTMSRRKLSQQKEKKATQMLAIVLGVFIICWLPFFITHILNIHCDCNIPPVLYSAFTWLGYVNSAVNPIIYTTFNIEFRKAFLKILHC

Sequence of MT1 (ML1A) (h) (P48039 whole entry): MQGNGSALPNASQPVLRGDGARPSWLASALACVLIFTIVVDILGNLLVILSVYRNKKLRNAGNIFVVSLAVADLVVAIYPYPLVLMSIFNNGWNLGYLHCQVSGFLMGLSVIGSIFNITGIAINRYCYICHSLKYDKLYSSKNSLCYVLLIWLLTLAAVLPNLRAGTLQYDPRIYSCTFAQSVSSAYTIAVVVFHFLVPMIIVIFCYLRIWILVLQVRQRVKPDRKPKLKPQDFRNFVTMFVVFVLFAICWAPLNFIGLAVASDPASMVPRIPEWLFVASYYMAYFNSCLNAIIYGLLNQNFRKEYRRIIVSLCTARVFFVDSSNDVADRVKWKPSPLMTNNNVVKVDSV
Sequence of ETA (h) (P25101 21-427): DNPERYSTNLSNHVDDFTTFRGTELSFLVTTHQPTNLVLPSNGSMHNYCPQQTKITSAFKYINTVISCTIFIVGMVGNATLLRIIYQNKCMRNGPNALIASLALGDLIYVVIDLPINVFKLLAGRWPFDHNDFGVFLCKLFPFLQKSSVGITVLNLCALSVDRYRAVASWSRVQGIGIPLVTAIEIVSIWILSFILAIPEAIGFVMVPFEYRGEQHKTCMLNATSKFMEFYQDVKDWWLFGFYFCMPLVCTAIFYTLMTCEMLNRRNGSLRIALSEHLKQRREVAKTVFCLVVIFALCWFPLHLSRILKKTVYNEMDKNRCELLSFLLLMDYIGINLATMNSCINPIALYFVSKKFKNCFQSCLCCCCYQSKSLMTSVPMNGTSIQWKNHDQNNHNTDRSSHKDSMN

With `CNC(=O)c1ccc(N2C(=S)N(c3ccc(C#N)c(C(F)(F)F)c3)C(=O)[C@]23CCOC3)cc1F` [(R)-1, 4-[(R)-3-(4-cyano-3-trifluoromethyl-phenyl)-4-oxo-2-thioxo-7-oxa-1,3-diaza-spiro[4.4]non-1-yl]-2-fluoro-N-methyl-benzamide] the inhibition at 10 µM (ETA (h)) was -2.5%, the inhibition at 10 µM (MT1 (ML1A) (h)) was -6.2% and the “% Inhibition” value (AMPA) was −23.0%. The inhibition at 10 µM (5-HT transporter (h)) was 43.5%, the inhibition at 10 µM (CysLT1 (LTD4) (h)) was -13.9% and the inhibition at 10 µM (IP (PGI2) (h)) was -7.3%. For the same compound, the inhibition at 10 µM (CB1 (h)) was -4.5%, the “% Inhibition” value (P2X) was 28.0% and the “% Inhibition” value (KV channel) was −10.1%. For the same compound, the inhibition at 10 µM [1] was -1.1%, the “AR antagonistic activity (in words)” value (androgen receptors) was “even greater AR antagonistic activity” and the “fold more efficient than III in inhibiting DHT-induced PSA expression” value (androgen receptors) was “around 1.9 fold”. The “fold more efficient than Ia in inhibiting DHT-induced PSA expression” value (androgen receptors) was “around 1.5 fold”, the “fold more potent than (S)-stereoisomer (S)-1” value (androgen receptors) was “more than 10 fold” and the Ki (androgen receptors; read-out: Ki, inhibition of DHT-induced PSA expression) was 20 nM. The “% Inhibition” value (kainate) was 13.1%, the inhibition at 10 µM (PPARγ (h)) was -19.2% and the inhibition at 10 µM (B2 (h)) was -5.2%. For the same compound, the “% Inhibition” value (GABA transporter) was 9.7%, the inhibition at 10 µM (NOP (ORL1) (h)) was -1.7% and the “% Inhibition” value (P2Y) was 33.3%. For the same compound, the inhibition at 10 µM (BLT1 (LTB4) (h)) was 15.9%, the inhibition at 10 µM (V2 (h)) was 1.5% and the inhibition at 10 µM (A1 (h)) was -11.8%. It also gave an inhibition at 10 µM (GR (h)) of 29.4% and an inhibition at 10 µM (D2S (h)) of -8.1%.
